Source: patent publication US7138361B2, “Herbicidal heterocycles” (E. I. du Pont de Nemours and Company, priority 2000, dated 2006)

What was measured:
Assay type in all cases: in vivo
[1] = system: johnsongrass (Sorghum halepense); experiment: Test C preemergence
Source text: (§1) Seeds of plant species selected from bermudagrass (Cynodon dactylon), Surinam grass (Brachiaria decumbens), cocklebur (Xanthium strumarium), corn (Zea mays), crabgrass (Digitaria sanguinalis), woolly cupgrass (Eriochloa villosa), giant foxtail (Setaria faberii), goosegrass (Eleusine indica), johnsongrass (Sorghum halepense), kochia (Kochia scoparia), lambsquarters (Chenopodium album), morningglory (Ipomoea hederacea), yellow nutsedge (Cyperus esculentus), pigweed (Amaranthus retroflexus), common ragweed (Ambrosia elatior), soybean (Glycine max) and velvetleaf (Abutilon theophrasti) were planted and treated preemergence with test chemicals formulated in a non-phytotoxic solvent mixture which included a surfactant.
(§2) At the same time, plants selected from these crop and weed species and also winter barley (Hordeum vulgare), blackgrass (Alopecurus myosuroides), canary grass (Phalaris minor), chickweed (Stellaria media), downy brome (Bromus tectorum), green foxtail (Setaria viridis), Italian ryegrass (Lolium multiflorum), wheat (Triticum aestivum), wild oat (Avena fatua) and windgrass (Apera spica-venti) were treated with postemergence applications of some of the test chemicals formulated in the same manner. Plants ranged in height from 2 to 18 cm (1- to 4-leaf stage) for postemergence treatments. Plant species in the flooded paddy test consisted of rice (Oryza saliva), smallflower flatsedge (Cyperus difformis), duck salad (Heteranthera limosa) and barnyardgrass (Echinochloa crus-galli) grown to the 2-leaf stage for testing. Treated plants and controls were maintained in a greenhouse for 12 to 14 days, after which time all species were compared to controls and visually evaluated. Plant response ratings, summarized in Table C, are based on a scale of 0 to 100 where 0 is no effect and 100 is complete control. A dash (-) response means no test result.

[2] = system: soybean (Glycine max); experiment: Test C preemergence
Source text: as §1, §2

[3] = system: cocklebur (Xanthium strumarium); experiment: Test C preemergence
Source text: as §1, §2

[4] = system: pigweed (Amaranthus retroflexus); experiment: Test C preemergence
Source text: as §1, §2

[5] = system: morningglory (Ipomoea hederacea); experiment: Test C preemergence
Source text: as §1, §2

[6] = system: lambsquarters (Chenopodium album); experiment: Test C preemergence
Source text: as §1, §2

[7] = system: kochia (Kochia scoparia); experiment: Test C preemergence
Source text: as §1, §2

[8] = system: velvetleaf (Abutilon theophrasti); experiment: Test C preemergence
Source text: as §1, §2

[9] = system: Surinam grass (Brachiaria decumbens); experiment: Test C preemergence
Source text: as §1, §2

[10] = system: corn (Zea mays); experiment: Test C preemergence
Source text: as §1, §2

[11] = system: woolly cupgrass (Eriochloa villosa); experiment: Test C preemergence
Source text: as §1, §2

[12] = system: goosegrass (Eleusine indica); experiment: Test C preemergence
Source text: as §1, §2

[13] = system: giant foxtail (Setaria faberii); experiment: Test C preemergence
Source text: as §1, §2

[14] = system: Sunflower; experiment: Test C preemergence; settings: Rate 125 g/ha; scale 0 to 100, 0 no effect, 100 complete control
Source text: as §1, §2

[15] = system: common ragweed (Ambrosia elatior); experiment: Test C preemergence
Source text: as §1, §2

[16] = system: Nightshade; experiment: Test C preemergence
Source text: as §1, §2

[17] = system: bermudagrass (Cynodon dactylon); experiment: Test C preemergence
Source text: as §1, §2

[18] = system: crabgrass (Digitaria sanguinalis); experiment: Test C preemergence
Source text: as §1, §2

[19] = system: yellow nutsedge (Cyperus esculentus); experiment: Test C preemergence
Source text: as §1, §2

[20] = system: duck salad (Heteranthera limosa); experiment: Test C flooded paddy test; settings: for Ducksalad plant response rating: Flooded Paddy, scale 0 to 100, 0 no effect, 100 complete control; for Plant response rating, Ducksalad: flooded paddy test, scale 0 to 100 (0 no effect, 100 complete control)
Outline: (§3)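 2-leaf-stage plants, flooded paddy; treated; greenhouse 12–14 days; compared with controls by eye; rated 0–100 (0 none, 100 complete control).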

[21] = system: barnyardgrass (Echinochloa crus-galli); experiment: Test C flooded paddy test; settings: for Barnyardgrass plant response rating: Flooded Paddy, scale 0 to 100, 0 no effect, 100 complete control; for Plant response rating, Barnyardgrass: flooded paddy test, scale 0 to 100 (0 no effect, 100 complete control)
Outline: as §3

[22] = system: smallflower flatsedge (Cyperus difformis); experiment: Test C flooded paddy test; settings: for Flatsedge plant response rating: Flooded Paddy, scale 0 to 100, 0 no effect, 100 complete control; for Plant response rating, Flatsedge: flooded paddy test, scale 0 to 100 (0 no effect, 100 complete control)
Outline: as §3

[23] = Rate 125 g/ha, scale 0 to 100, 0 no effect, 100 complete control
[24] = preemergence, Rate 62 g/ha, scale 0 to 100
[25] = preemergence, Rate 500 g/ha, visual evaluation after 12 to 14 days
[26] = preemergence, Rate 250 g/ha, scale 0 to 100, 0 no effect, 100 complete control

CCCC(C)c1ccn(C2CCN(c3cccc(OC)c3)C2=O)n1 (stereo not drawn) [Compound 99]
Plant response rating, Johnsongrass [1, 23]: 0 | Plant response rating, Johnsongrass [1, 24]: 0 | Plant response rating (0 to 100), Johnsongrass [1, 25]: 90 | Plant response rating, Johnsongrass [1, 26]: 0 | Plant response rating, Soybean [2, 23]: 0 | Plant response rating, Soybean [2, 24]: 0 | Plant response rating (0 to 100), Soybean [2, 25]: 0 | Plant response rating, Soybean [2, 26]: 0 | Plant response rating, Cocklebur [3, 23]: 0 | Plant response rating, Cocklebur [3, 24]: 0 | Plant response rating (0 to 100), Cocklebur [3, 25]: 0 | Plant response rating, Cocklebur [3, 26]: 0 | Plant response rating, Pigweed [4, 23]: 90 | Plant response rating, Pigweed [4, 24]: 0 | Plant response rating (0 to 100), Pigweed [4, 25]: 70 | Plant response rating, Pigweed [4, 26]: 20 | Plant response rating, Morningglory [5, 23]: 20 | Plant response rating, Morningglory [5, 24]: 0 | Plant response rating (0 to 100), Morningglory [5, 25]: 20 | Plant response rating, Morningglory [5, 26]: 20 | Plant response rating, Lambsquarters [6, 23]: 100 | Plant response rating, Lambsquarters [6, 24]: 100 | Plant response rating (0 to 100), Lambsquarters [6, 25]: 100 | Plant response rating, Lambsquarters [6, 26]: 100 | Plant response rating, Kochia [7, 23]: 90 | Plant response rating, Kochia [7, 24]: 80 | Plant response rating (0 to 100), Kochia [7, 25]: 100 | Plant response rating, Kochia [7, 26]: 90 | Plant response rating, Velvetleaf [8, 23]: 0 | Plant response rating, Velvetleaf [8, 24]: 0 | Plant response rating (0 to 100), Velvetleaf [8, 25]: 0 | Plant response rating, Velvetleaf [8, 26]: 0 | Plant response rating, Surinam grass [9, 23]: 0 | Plant response rating, Surinam grass [9, 24]: 0 | Plant response rating (0 to 100), Surinam grass [9, 25]: 90 | Plant response rating, Surinam grass [9, 26]: 0 | Plant response rating, Corn [10, 23]: 0 | Plant response rating, Corn [10, 24]: 0 | Plant response rating (0 to 100), Corn [10, 25]: 20 | Plant response rating, Corn [10, 26]: 0 | Plant response rating, Cupgrass, Woolly [11, 23]: 0 | Plant response rating, Cupgrass, Woolly [11, 24]: 0 | Plant response rating (0 to 100), Cupgrass, Woolly [11, 25]: 100 | Plant response rating, Cupgrass, Woolly [11, 26]: 10 | Plant response rating, Goosegrass [12, 23]: 80 | Plant response rating, Goosegrass [12, 24]: 80 | Plant response rating (0 to 100), Goosegrass [12, 25]: 100 | Plant response rating, Goosegrass [12, 26]: 90 | Plant response rating, Foxtail, Giant [13, 23]: 20 | Plant response rating, Foxtail, Giant [13, 24]: 10 | Plant response rating (0 to 100), Foxtail, Giant [13, 25]: 70 | Plant response rating, Foxtail, Giant [13, 26]: 20 | Plant response rating, Sunflower [14]: 0 | Plant response rating, Ragweed, Common [15, 23]: 0 | Plant response rating, Ragweed, Common [15, 24]: 0 | Plant response rating (0 to 100), Ragweed, Common [15, 25]: 0 | Plant response rating, Ragweed, Common [15, 26]: 0 | Plant response rating, Nightshade ([16]; Rate 62 g/ha, scale 0 to 100): 0 | Plant response rating, Nightshade [16, 23]: 0 | Plant response rating, Nightshade ([16]; Rate 250 g/ha, scale 0 to 100, 0 no effect, 100 complete control): 0 | Plant response rating, Bermudagrass [17, 23]: 90 | Plant response rating, Bermudagrass [17, 24]: 90 | Plant response rating (0 to 100 where 0 is no effect and 100 is complete control), Bermudagrass [17, 25]: 100 | Plant response rating, Bermudagrass [17, 26]: 100 | Plant response rating, Crabgrass [18, 23]: 100 | Plant response rating, Crabgrass [18, 24]: 100 | Plant response rating (0 to 100), Crabgrass [18, 25]: 100 | Plant response rating, Crabgrass [18, 26]: 100 | Plant response rating, Nutsedge [19, 23]: 0 | Plant response rating, Nutsedge [19, 24]: 0 | Plant response rating (0 to 100), Nutsedge [19, 25]: 90 | Plant response rating, Nutsedge [19, 26]: 0 | Ducksalad plant response rating ([20]; Rate 250 g/ha): 0 | Ducksalad plant response rating ([20]; Rate 500 g/ha): 0 | Plant response rating, Ducksalad ([20]; Rate 62 g/ha): 0 | Plant response rating, Ducksalad ([20]; Rate 125 g/ha): 0 | Barnyardgrass plant response rating ([21]; Rate 250 g/ha): 20 | Barnyardgrass plant response rating ([21]; Rate 500 g/ha): 60 | Plant response rating, Barnyardgrass ([21]; Rate 62 g/ha): 0 | Plant response rating, Barnyardgrass ([21]; Rate 125 g/ha): 0 | Flatsedge plant response rating ([22]; Rate 250 g/ha): 100 | Flatsedge plant response rating ([22]; Rate 500 g/ha): 100 | Plant response rating, Flatsedge ([22]; Rate 62 g/ha): 0 | Plant response rating, Flatsedge ([22]; Rate 125 g/ha): 90
